Data from patent US20220031697A1, “Dose and regimen for an hdm2-p53 interaction inhibitor in hematological tumors” (Novartis AG, priority 2017, published 2022).
“And” between values parts separate entries of the source, which are not always exact repeats. Equal values may be shown once. Read-outs that look alike come from different tables or passages of the source.

Experiments:
[1] = tested on: human SJSA-1 (osteosarcoma) xenograft; test: TGI PK/PD modelling, xenograft rat; type: in vivo; conditions: human SJSA-1 xenograft rat
Protocol: Line at 120 ng/mL=95% tumor regression from human SJSA-1 xenograft rat. […] Calculation of average dose level (mg/day):
To further support the 45 mg for HDM201, compartmental PK modeling was used to estimate the individual average concentration during cycle 1 for patients with hematological tumors treated at 45 mg on regimen 2C (FIG. 2). For all patients with measured PK, the estimated average drug concentrations during cycle 1 were above the most conservative average tumor stasis concentration of about 41 ng/mL per cycle determined from PKPD modeling of preclinical data (human SJSA-1 xenograft rat model).

[2] = tested on: patients with hematological tumors
From the text: Herein, data are disclosed from this multicenter, open-label, first-in-human Phase I study of HDM201 in patients with advanced TP53 wild-type (WT) leukemias.
The clinical study design allowed parallel exploration of the safety, tolerability, and clinical activity (efficacy) of two broad dosing strategies for HDM201 during dose escalation: intermittent high dose regimens (Regimen 1A and 1B) and extended low dose regimens (Regimen 2A and 2C).
This clinical study utilized a Bayesian logistic regression model (BLRM) to support dose escalation and estimate the MTD for HDM201. The BLRM enables incorporation of available prior information and updates the model parameters based upon the DLTs observed in the clinical study at varied doses in evaluable patients.

[3] = 1A 250 mg N=10, cut-off 15 Jan. 2018
[4] = 1B 120 mg N=23, cut-off 15 Jan. 2018
[5] = 2C 45 mg N=25, cut-off 15 Jan. 2018

For `COc1ncc(-c2nc3c(n2C(C)C)[C@H](c2ccc(Cl)cc2)N(c2cc(Cl)cn(C)c2=O)C3=O)c(OC)n1` [HDM201, (S)-5-(5-Chloro-1-methyl-2-oxo-1,2-dihydro-pyridin-3-yl)-6-(4-chloro-phenyl)-2-(2,4-dimethoxy-pyrimidin-5-yl)-1-isopropyl-5,6-dihydro-1H-pyrrolo[3,4-d]imidazol-4-one], the “Concentration for 95% tumor regression” value [1] was 120 ng/mL, the “Abdominal Discomfort, Grade 3/4” value [2] was 0 n (%) and the “Abdominal Pain Upper, Grade 3/4” value [2] was 0 n (%). The “Abdominal Pain, Grade 3/4” value [2] was 0 n (%), the “Amylase Increased, Grade 3/4” value [2] was 0 n (%) and the “Arthralgia, Grade 3/4” value [2] was 0 n (%). For the same compound, the “Asthenia, Grade 3/4” value [2] was 0 n (%), the “Atrial Fibrillation, Grade 3/4” value [2] was 0 n (%) and the “Atypical Pneumonia, Grade 3/4” value [2] was 0 n (%). The “Balanitis Candida, Grade 3/4” value [2] was 0 n (%), the “Blood Alkaline Phosphatase Increased, Grade 3/4” value [2] was 0 n (%) and the “Blood Bilirubin Increased, Grade 3/4” value [2] was 0 n (%). For the same compound, the “Blood Phosphorus Increased, Grade 3/4” value [2] was 0 n (%), the “Cardiac Failure, Grade 3/4” value [2] was 0 n (%) and the “Conjunctival Haemorrhage, Grade 3/4” value [2] was 0 n (%). For the same compound, the “Constipation, Grade 3/4” value [2] was 0 n (%), the “Cough, Grade 3/4” value [2] was 0 n (%) and the “Cystitis Viral, Grade 3/4” value [2] was 0 n (%). For the same compound, the “Cytomegalovirus Infection, Grade 3/4” value [2] was 0 n (%), the “Decreased Appetite, Grade 3/4” value [2] was 0 n (%) and the “Diarrhoea, Grade 3/4” value [2] was 0 n (%). The “Dyspepsia, Grade 3/4” value [2] was 0 n (%), the “Epistaxis, Grade 3/4” value [2] was 0 n (%) and the “Fatigue, Grade 3/4” value [2] was 0 n (%). The “General Physical Health Deterioration, Grade 3/4” value [2] was 0 n (%), the “Gingival Bleeding, Grade 3/4” value [2] was 0 n (%) and the “Graft Versus Host Disease, Grade 3/4” value [2] was 0 n (%). For the same compound, the “Haemoglobin Decreased, Grade 3/4” value [2] was 0 n (%), the “Headache, Grade 3/4” value [2] was 0 n (%) and the “Hyperbilirubinaemia, Grade 3/4” value [2] was 0 n (%). The “Hyperglycaemia, Grade 3/4” value [2] was 0 n (%), the “Hyperphosphataemia, Grade 3/4” value [2] was 0 n (%) and the “Hyperuricaemia, All Grades” value [2] was 2 n (%) and 2 (33.3) n (%) and 1 (14.3) n (%). For the same compound, the “Hypoalbuminaemia, Grade 3/4” value [2] was 0 n (%), the “Hypocalcaemia, Grade 3/4” value [2] was 0 n (%) and the “Hypokalaemia, Grade 3/4” value [2] was 0 n (%). The “Hypomagnesaemia, Grade 3/4” value [2] was 0 n (%), the “Hyponatraemia, Grade 3/4” value [2] was 0 n (%) and the “Hypotension, Grade 3/4” value [2] was 0 n (%). For the same compound, the “Infective Glossitis, Grade 3/4” value [2] was 0 n (%), the “Influenza Like Illness, Grade 3/4” value [2] was 0 n (%) and the “Iron Overload, Grade 3/4” value [2] was 0 n (%). For the same compound, the “Lip Oedema, Grade 3/4” value [2] was 0 n (%), the “Malaise, Grade 3/4” value [2] was 0 n (%) and the “Mouth Haemorrhage, Grade 3/4” value [2] was 0 n (%). For the same compound, the “Nausea, Grade 3/4” value [2] was 0 n (%), the “Oedema Peripheral, Grade 3/4” value [2] was 0 n (%) and the “Oedema, Grade 3/4” value [2] was 0 n (%). For the same compound, the “Oral Disorder, Grade 3/4” value [2] was 0 n (%), the “Pain In Extremity, Grade 3/4” value [2] was 0 n (%) and the “Pneumonia, Grade 3/4” value [2] was 0 n (%). The “Pollakiuria, Grade 3/4” value [2] was 0 n (%), the “Pyrexia, Grade 3/4” value [2] was 0 n (%) and the “Rash Erythematous, Grade 3/4” value [2] was 0 n (%). For the same compound, the “Rash Papular, Grade 3/4” value [2] was 0 n (%), the “Rash, Grade 3/4” value [2] was 0 n (%) and the “Rectal Haemorrhage, Grade 3/4” value [2] was 0 n (%). The “Skin Exfoliation, Grade 3/4” value [2] was 0 n (%), the “Vomiting, Grade 3/4” value [2] was 0 n (%) and the “Weight Decreased, Grade 3/4” value [2] was 0 n (%). The “Amylase Increased, All Grades” value [2, 3] was 1 (10.0) n (%), the “Amylase Increased, Grade 3/4” value [2, 3] was 1 (10.0) n (%) and the “Anemia, All Grades” value [2, 3] was 5 (50.0) n (%). The “Anemia, Grade 3/4” value [2, 3] was 3 (30.0) n (%), the “Aspiration, All Grades” value [2, 3] was 1 (10.0) n (%) and the “Aspiration, Grade 3/4” value [2, 3] was 1 (10.0) n (%). The “Blood Creatinine Increased, All Grades” value [2, 3] was 2 (20.0) n (%), the “Blood Creatinine Increased, Grade 3/4” value [2, 3] was 0 n (%) and the “Blood Uric Acid Increased, All Grades” value [2, 3] was 2 (20.0) n (%). For the same compound, the “Blood Uric Acid Increased, Grade 3/4” value [2, 3] was 1 (10.0) n (%), the “Diarrhoea, All Grades” value [2, 3] was 3 (30.0) n (%) and the “Diarrhoea, Grade 3/4” value [2, 3] was 0 n (%). For the same compound, the “Febrile Neutropenia, All Grades” value [2, 3] was 2 (20.0) n (%), the “Febrile Neutropenia, Grade 3/4” value [2, 3] was 2 (20.0) n (%) and the “Hyperkalaemia, All Grades” value [2, 3] was 2 (20.0) n (%). For the same compound, the “Hyperkalaemia, Grade 3/4” value [2, 3] was 1 (10.0) n (%), the “Hyperuricaemia, All Grades” value [2, 3] was 1 (10.0) n (%) and the “Hyperuricaemia, Grade 3/4” value [2, 3] was 1 (10.0) n (%). The “Hypocalcaemia, All Grades” value [2, 3] was 3 (30.0) n (%), the “Hypocalcaemia, Grade 3/4” value [2, 3] was 1 (10.0) n (%) and the “Hypomagnesaemia, All Grades” value [2, 3] was 2 (20.0) n (%). For the same compound, the “Hypomagnesaemia, Grade 3/4” value [2, 3] was 0 n (%), the “Leukopenia, All Grades” value [2, 3] was 1 (10.0) n (%) and the “Leukopenia, Grade 3/4” value [2, 3] was 1 (10.0) n (%). The “Megakaryocytes Abnormal, All Grades” value [2, 3] was 1 (10.0) n (%), the “Megakaryocytes Abnormal, Grade 3/4” value [2, 3] was 1 (10.0) n (%) and the “Nausea, All Grades” value [2, 3] was 3 (30.0) n (%). The “Nausea, Grade 3/4” value [2, 3] was 0 n (%), the “Neutropenia, All Grades” value [2, 3] was 4 (40.0) n (%) and the “Neutropenia, Grade 3/4” value [2, 3] was 3 (30.0) n (%). The “Thrombocytopenia, All Grades” value [2, 3] was 5 (50.0) n (%), the “Thrombocytopenia, Grade 3/4” value [2, 3] was 5 (50.0) n (%) and the “Tumour Lysis Syndrome, All Grades” value [2, 3] was 5 (50.0) n (%). For the same compound, the “Tumour Lysis Syndrome, Grade 3/4” value [2, 3] was 5 (50.0) n (%), the “Cycle 1 DLTs” value ([2]; 1A (d1 Q3W) 250 mg, 3 evaluable patients) was 0 and the “Cycle 1 DLTs” value ([2]; 1A (d1 Q3W) 350 mg, 4 evaluable patients) was 0. For the same compound, the “Cycle 1 DLTs” value ([2]; 1A (d1 Q3W) 400 mg, 9 evaluable patients) was 4, the “Cycle 1 DLTs” value ([2]; 1A total N = 16) was 4: and the “Anemia, All Grades” value [2, 4] was 7 (30.4) n (%). The “Anemia, Grade 3/4” value [2, 4] was 2 (8.7) n (%), the “Asthenia, All Grades” value [2, 4] was 3 (13.0) n (%) and the “Asthenia, Grade 3/4” value [2, 4] was 1 (4.3) n (%). The “Febrile Bone Marrow Aplasia, All Grades” value [2, 4] was 3 (13.0) n (%), the “Febrile Bone Marrow Aplasia, Grade 3/4” value [2, 4] was 2 (8.7) n (%) and the “Leukopenia, All Grades” value [2, 4] was 3 (13.0) n (%). For the same compound, the “Leukopenia, Grade 3/4” value [2, 4] was 3 (13.0) n (%), the “Nausea, All Grades” value [2, 4] was 6 (26.1) n (%) and the “Nausea, Grade 3/4” value [2, 4] was 0 n (%). The “Neutropenia, All Grades” value [2, 4] was 4 (17.4) n (%), the “Neutropenia, Grade 3/4” value [2, 4] was 4 (17.4) n (%) and the “Thrombocytopenia, All Grades” value [2, 4] was 10 (43.5) n (%). For the same compound, the “Thrombocytopenia, Grade 3/4” value [2, 4] was 10 (43.5) n (%), the “Tumour Lysis Syndrome, All Grades” value [2, 4] was 4 (17.4) n (%) and the “Tumour Lysis Syndrome, Grade 3/4” value [2, 4] was 3 (13.0) n (%). The “Vomiting, All Grades” value [2, 4] was 3 (13.0) n (%), the “Vomiting, Grade 3/4” value [2, 4] was 0 n (%) and the “Cycle 1 DLTs” value ([2]; 1B (d1, d8 Q4W) 150 mg, 6 evaluable patients) was 1. For the same compound, the “Cycle 1 DLT events” value ([2]; 1B total N = 6) was “Acute Kidney”, the “Cycle 1 DLTs” value ([2]; 1B total N = 6) was 1: and the “Cycle 1 DLTs” value ([2]; 2A (2 weeks on/2 weeks off) 20 mg, 3 evaluable patients) was 0. For the same compound, the “Cycle 1 DLTs” value ([2]; 2A (2 weeks on/2 weeks off) 30 mg, 3 evaluable patients) was 0, the “Cycle 1 DLTs” value ([2]; 2A total N = 6) was 0 and the “Alopecia, All Grades” value [2, 5] was 3 (12.0) n (%). For the same compound, the “Alopecia, Grade 3/4” value [2, 5] was 0 n (%), the “Anemia, All Grades” value [2, 5] was 13 (52.0) n (%) and the “Anemia, Grade 3/4” value [2, 5] was 9 (36.0) n (%). For the same compound, the “Decreased Appetite, All Grades” value [2, 5] was 6 (24.0) n (%), the “Decreased Appetite, Grade 3/4” value [2, 5] was 0 n (%) and the “Fatigue, All Grades” value [2, 5] was 5 (20.0) n (%). The “Fatigue, Grade 3/4” value [2, 5] was 2 (8.0) n (%), the “Febrile Neutropenia, All Grades” value [2, 5] was 8 (32.0) n (%) and the “Febrile Neutropenia, Grade 3/4” value [2, 5] was 8 (32.0) n (%). The “Leukopenia, All Grades” value [2, 5] was 5 (20.0) n (%), the “Leukopenia, Grade 3/4” value [2, 5] was 5 (20.0) n (%) and the “Nausea, All Grades” value [2, 5] was 12 (48.0) n (%). For the same compound, the “Nausea, Grade 3/4” value [2, 5] was 0 n (%), the “Neutropenia, All Grades” value [2, 5] was 11 (44.0) n (%) and the “Neutropenia, Grade 3/4” value [2, 5] was 10 (40.0) n (%). For the same compound, the “Thrombocytopenia, All Grades” value [2, 5] was 13 (52.0) n (%), the “Thrombocytopenia, Grade 3/4” value [2, 5] was 12 (48.0) n (%) and the “Tumour Lysis Syndrome, All Grades” value [2, 5] was 3 (12.0) n (%). The “Tumour Lysis Syndrome, Grade 3/4” value [2, 5] was 3 (12.0) n (%), the “Vomiting, All Grades” value [2, 5] was 6 (24.0) n (%) and the “Vomiting, Grade 3/4” value [2, 5] was 0 n (%). The “Cycle 1 DLTs” value ([2]; 2C (1 week on/3 weeks off) 45 mg, 8 evaluable patients) was 1, the “Cycle 1 DLTs” value ([2]; 2C total N = 8) was 1 and the “Patients with DLT” value ([2]; Regimen 2C 45 mg) was 12.5%. For the same compound, the “Anemia, CTCAE grade 3/4 related to study drug” value ([2]; Regimen 2C 45 mg, 8 patients) was 37.5%, the “Febrile neutropenia, CTCAE grade 3/4 related to study drug” value ([2]; Regimen 2C 45 mg, 8 patients) was 37.5% and the “Neutropenia, CTCAE grade 3/4 related to study drug” value ([2]; Regimen 2C 45 mg, 8 patients) was 37.5%. The “Patients with at least one CTCAE grade 3/4 AE related to study drug” value ([2]; Regimen 2C 45 mg, 8 patients) was 62.5%, the “Thrombocytopenia, CTCAE grade 3/4 related to study drug” value ([2]; Regimen 2C 45 mg, 8 patients) was 62.5% and the “Treatment-related anemia, all grades” value ([2]; Regimen 2C 45 mg, 8 patients) was 62.5%. For the same compound, the “Treatment-related decreased appetite, all grades” value ([2]; Regimen 2C 45 mg, 8 patients) was 50.0%, the “Treatment-related febrile neutropenia, all grades” value ([2]; Regimen 2C 45 mg, 8 patients) was 37.5% and the “Treatment-related nausea, all grades” value ([2]; Regimen 2C 45 mg, 8 patients) was 37.5%. The “Treatment-related neutropenia, all grades” value ([2]; Regimen 2C 45 mg, 8 patients) was 50.0% and the “Treatment-related thrombocytopenia, all grades” value ([2]; Regimen 2C 45 mg, 8 patients) was 62.5%.
